From EP0521963B1, “CRF ANALOGS” (THE SALK INSTITUTE FOR BIOLOGICAL STUDIES, priority 1990, dated 1998)

Test system: cultured rat pituitary cells
Test: Stimulation of secretion of ACTH and β-endorphin by cultured rat pituitary cells (procedure of Endocrinology, 91, 562 (1972))
Assay type: cell-based
Details: compared against synthetic oCRF, read-out: Half-maximal responses
From the text: This synthetic peptide is examined for its effects on the secretion of ACTH and β-endorphin in vitro and also in vivo.

## CC[C@H](C)[C@H](NC(=O)[C@H](CC(=O)O)NC(=O)[C@H](CC(C)C)NC(=O)[C@H](CC(C)C)NC(=O)[C@H](CCCCN)NC(=O)[C@H](CCCNC(=N)N)NC(=O)[C@H](CC(N)=O)NC(=O)[C@H](CO)NC(=O)[C@H](Cc1c[nH]cn1)NC(=O)[C@H](C)NC(=O)[C@H](CCC(N)=O)NC(=O)[C@H](CCC(N)=O)NC(=O)[C@H](C)NC(=O)[C@H](CC(C)C)NC(=O)[C@H](CCC(N)=O)NC(=O)[C@H](CC(=O)O)NC(=O)[C@H](C)NC(=O)[C@H](CCCCN)NC(=O)[C@@H](NC(=O)[C@H](CCSC)NC(=O)[C@H](CCC(=O)O)NC(=O)[C@H](CC(C)C)NC(=O)[C@@H](NC(=O)[C@H](CCC(=O)O)NC(=O)[C@H](CCCNC(=N)N)NC(=O)[C@H](CC(C)C)NC(=O)[C@H](CC(C)C)NC(=O)[C@H](Cc1c[nH]cn1)NC(=O)[C@H](Cc1ccccc1)NC(=O)[C@@H](NC(=O)[C@H](CC(C)C)NC(=O)[C@H](CC(=O)O)NC(=O)[C@H](CC(C)C)NC(=O)[C@H](CO)NC(=O)[C@@H](NC(=O)[C@@H]1CCCN1C(=O)[C@@H]1CCCN1C(=O)[C@H](CCC(=O)O)NC(=O)[C@H](CCC(N)=O)NC(=O)[C@@H](N)CO)[C@@H](C)CC)[C@@H](C)O)C(C)C)[C@@H](C)O)C(=O)N[C@@H](C)C(N)=O [oCRF]
  EC50: ~0.25 nM
